Paper PMC12471299, “Secondary Metabolites of the Marine Sponge-Derived Fungus Aspergillus subramanianii 1901NT-1.40.2 and Their Antimicrobial and Anticancer Activities” (Marine Drugs, 2025)
Read-outs that look alike come from different tables or passages of the source.

Key:
[1] = system: Escherichia coli VKPM (B-7935); test: Biofilm formation assay (MTT); assay type: cell-based
Procedure: (§1) The Gram-positive bacterial Staphylococcus aureus ATCC 21027, Gram-negative bacterial Escherichia coli VKPM (B-7935), and yeast-like fungal Candida albicans KMM 455 strains were fermented on solid medium Mueller Hinton broth with agar (16.0 g/L) in a Petri dish at 37 °C for 24 h. The antimicrobial activity of the compound was tested at concentrations ranging from 100 µM and lower. The effect of the compound on bacterial growth was estimated as described by. Gentamicin and amphotericin B were used as positive controls against S. aureus, E. coli, and C. albicans, and a 1% dimethyl sulfoxide (DMSO) solution in PBS was used as a negative control. The optical density of the bacterial suspension after 18 h was measured at λ = 620 nm. The effect of the compound on biofilm formation for 18 h was tested using MTT reagent (Sigma-Aldrich, St. Louis, MO, USA) in accordance with. The optical density of the obtained solution was measured at λ = 570 nm. A Multiskan FS spectrophotometer (Thermo Scientific Inc., Beverly, MA, USA) was used for both assays. The results were calculated as percentages of the control data and presented as minimal concentrations reduced by 50% of growth or biofilm formation (MIC50).

[2] = system: Candida albicans KMM 455; test: Biofilm formation assay (MTT); assay type: cell-based
Procedure: as §1

[3] = system: Staphylococcus aureus ATCC 21027; test: Biofilm formation assay (MTT); assay type: cell-based
Procedure: as §1

[4] = system: H9c2 cardiomyocytes; test: Cell viability assay (MTT); assay type: cell-based, rat
Excerpt: (§2) Rat cardiomyocyte H9c2 cells were kindly provided by Prof. Dr. Gunhild von Amsberg from the Martini-Klinik Prostate Cancer Center, University Hospital Hamburg-Eppendorf, Hamburg, Germany. The human HaCaT keratinocyte cell line was kindly provided by Prof. N. Fusenig (Cancer Research Centre, Heidelberg, Germany). Non-cancerous human breast epithelial MCF-10A cells were kindly provided by Dr. Irina Zhitnyak (N. N. Blokhin National Medical Research Center of Oncology, Moscow, Russia). Human breast cancer MCF-7 HTB-22 and MDA-MB-231 cells were obtained from the ATTC (Manassas, VA, USA).
(§3) H9c2 and HaCaT cells were cultured in DMEM with 10% fetal bovine serum and 1% penicillin/streptomycin (BioloT, St. Petersburg, Russia). MCF-7 and MDA-MB-231 cells were cultured in MEM (BioloT, St. Petersburg, Russia) with 10% fetal bovine serum (FBS) and 1% penicillin/streptomycin (BioloT, St. Petersburg, Russia). MCF 10A cells were cultured in DMEM F12 medium (BioloT, St. Petersburg, Russia) supplemented with 20% FBS, 20 ng/mL hrEGF (Sci-Store, Moscow, Russia), and 1% penicillin/streptomycin (BioloT, St. Petersburg, Russia). All cells were cultured at 37 °C in a humidified atmosphere containing 5% CO2.
(§4) H9c2 cells were seeded at a concentration of 3 × 10^3 cells/well. MCF-10A, MCF-7, and MDA-MB-231 cells were seeded at 5 × 10^3 cells/well, and HaCaT cells were seeded at 1 × 10^4 cells/well. The experiments were initiated after 24 h.
(§5) Compounds at concentrations up to 100 µM were added to the wells for 24h or 48 h, and the viability of the cells was measured using an MTT (3-(4,5-dimethylthiazol-2-yl)-2,5-diphenyltetrazolium bromide) assay, which was performed according to the manufacturer’s instructions (Sigma-Aldrich, Munich, Germany). […] DMSO was used as a control. The results are presented as percentages of the control data.

[5] = Cell viability assay (MTT); assay type: cell-based, rat; conditions: rat, H9c2 cardiomyocytes, read-out: Cytotoxicity IC50
Excerpt: as §2, §3, §4, §5

[6] = system: Escherichia coli VKPM (B-7935); test: Antimicrobial assay, growth inhibition (optical density); assay type: cell-based
Procedure: as §1

[7] = system: Candida albicans KMM 455; test: as above; assay type: cell-based
Procedure: as §1

[8] = system: Staphylococcus aureus ATCC 21027; test: as above; assay type: cell-based; conditions: Staphylococcus aureus
Procedure: as §1

[9] = system: MDA-MB-231 breast cancer cells; test: Cell viability assay (MTT); assay type: cell-based, human
Excerpt: as §2, §3, §4, §5

[10] = system: MCF-10A breast epithelial cells; test: Cell viability assay (MTT); assay type: cell-based, human; conditions: MCF10A
Excerpt: as §2, §3, §4, §5

[11] = system: MCF-7 breast cancer cells; test: Cell viability assay (MTT); assay type: cell-based, human
Excerpt: as §2, §3, §4, §5

[12] = Cell viability assay (MTT); assay type: cell-based, human; conditions: human, read-out: Cytotoxicity IC50
Excerpt: as §2, §3, §4, §5

[13] = system: HaCaT keratinocytes; test: Cell viability assay (MTT); assay type: cell-based, human
Excerpt: as §2, §3, §4, §5

Q: Which results are given for `COc1c(OC)c(-c2c[nH]c3ccccc23)c(OC)c(OC)c1-c1c[nH]c2ccccc12` [Compound 7, asterriquinol D dimethyl ether]?
A: Biofilm formation, MIC50 ([1]; E. coli, 18 h): >100 µM; effect on E. coli biofilm formation ([1]; at / up to 100 µM): did not affect; Biofilm formation, MIC50 ([2]; C. albicans, 18 h): >100 µM; effect on C. albicans biofilm formation ([2]; at 100 µM): did not affect; Biofilm formation, MIC50 ([3]; S. aureus, 18 h): >100 µM; effect on S. aureus biofilm formation ([3]; at / up to 100 µM): did not affect; cell viability ([4]; H9c2, 24 h, 1.0 µM): 101.5 ± 1.3 % of control; cell viability ([4]; H9c2, 24 h, 10.0 µM): 76.9 ± 2.8 % of control; cell viability ([4]; H9c2, 24 h, 100.0 µM): 59.0 ± 5.3 % of control; cell viability ([4]; H9c2, 48 h, 1.0 µM): 102.8 ± 7.6 % of control; cell viability ([4]; H9c2, 48 h, 10.0 µM): 76.3 ± 3.9 % of control; cell viability ([4]; H9c2, 48 h, 100.0 µM): 32.8 ± 1.4 % of control; IC50 at 24 h ([5]; H9c2, 24 h): > 100 µM; IC50 at 48 h ([5]; H9c2, 48 h): 69.9 ± 2.3 µM; MIC50 ([6]; Escherichia coli, 18 h, E. coli): > 100 µM; effect on E. coli growth ([6]; at / up to 100 µM): did not affect; MIC50 ([7]; Candida albicans, KMM455, 18 h, C. albicans, 18 h): > 100 µM; effect on C. albicans growth ([7]; at / up to 100 µM): did not affect; MIC50 ([8]; ATCC21027, 18 h, S. aureus, 18 h): > 100 µM; inhibition at 100 µM ([8]; ATCC21027, at 100 µM, read-out: inhibition of S. aureus growth): 42.2 ± 2.07%; cell viability ([9]; MDA-MB-231, 24 h, 1.0 µM): 102.7 ± 1.6 % of control; cell viability ([9]; MDA-MB-231, 24 h, 10.0 µM): 75.9 ± 4.8 % of control; cell viability ([9]; MDA-MB-231, 24 h, 100.0 µM): 53.6 ± 4.2 % of control; cell viability ([9]; MDA-MB-231, 48 h, 1.0 µM): 99.8 ± 3.7 % of control; cell viability ([9]; MDA-MB-231, 48 h, 10.0 µM): 82.9 ± 6.3 % of control; cell viability ([9]; MDA-MB-231, 48 h, 100.0 µM): 43.5 ± 2.5 % of control; cell viability ([10]; 24 h, 1.0 µM): 102.7 ± 5.1 % of control; cell viability ([10]; 24 h, 10.0 µM): 100.2 ± 3.8 % of control; cell viability ([10]; 24 h, 100.0 µM): 59.6 ±2.1 % of control; cell viability ([10]; 48 h, 1.0 µM): 97.7 ± 1.4 % of control; cell viability ([10]; 48 h, 10.0 µM): 93.1 ± 3.6 % of control; cell viability ([10]; 48 h, 100.0 µM): 78.9 ± 5.7 % of control; cell viability ([11]; MCF-7, 24 h, 1.0 µM): 99.4 ± 4.4 % of control; cell viability ([11]; MCF-7, 24 h, 10.0 µM): 65.4 ± 2.9 % of control; cell viability ([11]; MCF-7, 24 h, 100.0 µM): 56.0 ± 4.5 % of control; cell viability ([11]; MCF-7, 48 h, 1.0 µM): 91.5 ± 6.3 % of control; cell viability ([11]; MCF-7, 48 h, 10.0 µM): 70.0 ± 5.2 % of control; cell viability ([11]; MCF-7, 48 h, 100.0 µM): 43.9 ± 3.5 % of control; IC50 at 24 h ([12]; HaCaT keratinocytes, 24 h): > 100 µM; IC50 at 48 h ([12]; HaCaT keratinocytes, 48 h): 80.5 ± 1.8 µM; IC50 at 24 h ([12]; MCF-7 breast cancer cells, MCF-7, 24 h): > 100 µM; IC50 at 48 h ([12]; MCF-7 breast cancer cells, MCF-7, 48 h): 79.1 ± 2.4 µM; IC50 at 24 h ([12]; MCF-10A breast epithelial cells, MCF10A, 24 h): > 100 µM; IC50 at 48 h ([12]; MCF-10A breast epithelial cells, MCF10A, 48 h): > 100 µM; IC50 at 24 h ([12]; MDA-MB-231 breast cancer cells, MDA-MB-231, 24 h): > 100 µM; IC50 at 48 h ([12]; MDA-MB-231 breast cancer cells, MDA-MB-231, 48 h): 85.1 ± 1.5 µM; cell viability ([13]; 24 h, 1.0 µM): 100.7 ± 3.8 % of control; cell viability ([13]; 24 h, 10.0 µM): 85.6 ± 7.6 % of control; cell viability ([13]; 24 h, 100.0 µM): 64.1 ± 3.2 % of control; cell viability ([13]; 48 h, 1.0 µM): 94.2 ± 8.7 % of control; cell viability ([13]; 48 h, 10.0 µM): 78.1 ± 6.4 % of control; cell viability ([13]; 48 h, 100.0 µM): 40.1 ± 2.9 % of control
